This is an account of results in US4845102A, “Therapeutic agent for the treatment of peptic ulcer disease” (Hoechst Japan Limited, priority 1986, dated 1989).

The subject of data set [1] is stress-induced gastric ulcer. The data set can be described thus: Protective effect on gastric ulcer induced by restraint plus water-immersion stress in rats. It is filed as in vivo, Male Sprague-Dawley rats. As to conditions: for Ulcer index: mean ± S.E. As to the method: 1.1 Protective efrfect on gastric ulcer induced by restraint plus water-immersion stress in rats
Male Sprague-Dawley rats weighing 250-300 g wer eused in groups of 5-24. The animals were given the compounds by the oral route after fastin overnight. Immediately, under light ether anesthesia they were placed in a restraint box and immersed in water at 20° C. for 6 to 7 hours. Then the animals were sacrificed, and their stomachs were isolated, inflated with 4 ml of 1 % formalin for 10 minutes, opened along the greater cruvature, and examined for the rpesence of agstric erosions. The longest axis of each erosion induced on the glandular section of the stomach was measured, and the sum of the lengths was defined as an ulcer index.

Data set [2] relates to ethanol-induced gastric ulcer. The data set can be described thus: Protective effect on ethanol-induced gastric ulcer in rats. In kind it is in vivo, Male Sprague-Dawley rats. To be noted: for Ulcer index: mean ± S.E. As to the method: 1.2 Protective effect on ethanol-induced gastric ulcer in rats
Male Sprague-Dawley rats weighing 250-300 g were used in groups of 5-21. After fasting overnight, the animals were given orally the compounds. Thirty minutes later they received absolute ethanol (1 ml/body) orally and were sacrificed after 60 minutes. The stomach was removed and examined for erosions. The ulcer index was obtained in the same way as under 1.1.

Data set [3] is described as follows: in vivo. As to conditions: mouse, mice.
The test system of a further data set is rats. The data set can be described thus: 3-month oral toxicity study in rats. In kind it is in vivo. To be noted: 3 months. As to the method:
Compound 2 was administered orally to rats at 150 and 50 mg/kg/day for 3 months. This study included: observation of toxic signs during the treatment; macroscopic and microscopic examinations of main organs including the brain, heart, liver, kidney, bone marrow, adrenal, and lung; and biochemical tests of the blood and urine.

The nature of data set [4]: Toxicity, general statements. As to conditions: in vivo.
The nature of data set [5]: in vivo. As to conditions: rat, rats.
In data set [6] the test system is peptic ulcer disease. The data set can be described thus: Antiulcer effect, general statements. To be noted: in vivo.
The conditions of data set [7]: c.f. U.S. Pat. No. 4,289,776; cited from earlier work.
A further data set deals with gastric hemorrhage. The data set can be described thus: Inhibitory effect on gastric hemorrhage in rats (pylorus ligation, 2-deoxy-D-glucose plus indomethacin). It is filed as in vivo, Male Sprague-Dawley rats. As to conditions: for Amount of hemoglobin: mean ± S.E.; for effect on gastric hemorrhage (in words): rats. As to the method: 1.3 Inhibitory effect on gastric hemorrhage in rats
The method of Maeda-Hagiwara and Watanabe (Eur. J. Pharmacol. 89, 243-250, 1983) was used. Male Sprague-Dawley rats weighing 250-300 g were employed in groups of 10-14. After 24 hours fasting, the pylorus was ligated under light ether anesthesia. Then, 200 mg/kg of 2-deoxy-D-glucose was administered intravenously in combination with 40 mg/kg of indomethacin suspended in 0.5 % carboxymethylcellulose by the subcutaneous route. After 1 hour the test compounds wer einjected intraperitoneally. Two hours later, the animals were exsanguinated under ether anesthesia and their stomachs were isolated. Gastric juice was collected and filtered. The amount of discharged blood was expressed as that of hemoglobin in mg per rat.

The test system of data set [8] is peptic ulcer disease. To be noted: Vorobyev and Samsonov, Ter. Ark. 57, 52-55, 1985; cited from earlier work.
The mark [9] stands for this setting: Table 3 (efficacy comparison), 10 mg/kg po.
Where [10] appears, read: Table 5 (efficacy comparison), 10 mg/kg po.
Setting [11] is: ip, intraperitoneal administration.

As for `CCn1cnc2c1c(=O)n(CCCCC(C)=O)c(=O)n2C` [Compound 1], in data set [1] (setting [9]), the Inhibition worked out at 77.2% and the Ulcer index came out at 4.5 ± 0.9 mm. In [2] (setting [10]), this compound registered an Inhibition of 84.6% and a Ulcer index of 25.3 ± 10.9 mm. Besides, the median lethal dose (LD50) in the data set “in vivo [3]” (setting [11]) is 250 to 500 mg/kg.
Turning to `CCCn1cnc2c1c(=O)n(CCCCC(C)=O)c(=O)n2C` [Compound 2, 1,2,3,6-tetrahydro-3-methyl-1-(5-oxohexyl)-7-propyl-purine-2,6-dione], the “toxic signs, macroscopic and microscopic organ examinations, biochemical tests of blood and urine” value in the data set on rats (50 mg/kg/day) is listed as “no abnormalities at either level of treatment”; in the data set on rats (150 mg/kg/day) it was “no abnormalities at either level of treatment except that slight salivation occurred at 150 mg/kg/day”. Moreover, the “toxicity (in words)” value in [4] was “low toxicity”. The Inhibition in data set [1] (Table 2, 5 mg/kg po) is on record as 39.4%; in data set [1] (Table 2, 10 mg/kg po), 64.3%; in data set [1] (Table 2, 25 mg/kg po), 75.6%; in data set [1] (setting [9]), 56.3%; in data set [2] (Table 4, 10 mg/kg po), 61.5%; in [2] (Table 4, 25 mg/kg po), 75.4%. For the same compound, the Inhibition in [2] (Table 4, 50 mg/kg po) stood at 89.7%; in [2] (setting [10]) it was 86.9%. For the same compound, the Ulcer index in data set [1] (Table 2, 5 mg/kg po) was found to be 22.6 ± 9.8 mm; in data set [1] (Table 2, 10 mg/kg po), 13.3 ± 5.4 mm; in data set [1] (Table 2, 25 mg/kg po), 9.1 ± 3.1 mm; in data set [1] (setting [9]), 8.6 ± 2.3 mm; in data set [2] (Table 4, 10 mg/kg po) it was 51.0 ± 13.2 mm; in data set [2] (Table 4, 25 mg/kg po), 32.6 ± 9.1 mm. The Ulcer index in data set [2] (Table 4, 50 mg/kg po) is 13.6 ± 9.3 mm; in data set [2] (setting [10]), 21.6 ± 4.6 mm. The “effectiveness relative to pentoxifylline in improving stress-induced gastric ulcers” value in data set [1] (versus pentoxifylline) lay in the range of 2 to 3 times. Further, the LD50 in the data set “in vivo [5]” (intravenous injection) was 180 mg/kg; in the data set “in vivo [5]” (oral dosing) it was 1150 mg/kg; in the data set “in vivo [3]” (setting [11]) it was 296 mg/kg; in “in vivo [3]” (intravenous injection), 168 mg/kg; in the data set “in vivo [3]” (oral dosing), 900 mg/kg. Further, the “antiulcer effect (in words)” value in the data set on peptic ulcer disease [6] is on record as “improving effects on gastric ulcer”. Also, in data set [7], the “pharmacological effects shown previously (in words)” value is “dilate cerebral blood vessels, improve cerebral energy metabolism, red blood cell deformability, and cerebral edema, and decrease blood viscosity”. Moreover, the Amount of hemoglobin with gastric hemorrhage (12.5 mg/kg i.p.) stood at 27.0 ± 3.0 mg/rat; with gastric hemorrhage (25 mg/kg i.p.), 14.4 ± 1.4 mg/rat; in the data set on gastric hemorrhage (50 mg/kg i.p.), 12.5 ± 1.6 mg/rat. For the same compound, the “effect on gastric hemorrhage (in words)” value in the data set on gastric hemorrhage is recorded as “inhibitory effects on gastric hemorrhage”.
Take `CCCn1cnc2c1c(=O)n(CCCC(C)=O)c(=O)n2C` [Compound 3]: in data set [1] (setting [9]), the Inhibition came out at 67.0% and the Ulcer index was determined as 6.5 ± 1.6 mm. This compound also displayed a 50% lethal dose (LD50) in the data set “in vivo [3]” (setting [11]) of 300 to 600 mg/kg.
Take `CC(=O)CCCCn1c(=O)c2c(ncn2C)n(C)c1=O` [Pentoxifylline, 1,2,3,6-tetrahydro-3,7-dimethyl-1-(5-oxohexyl)-purine-2,6-dione, reference compound]: in the data set on peptic ulcer disease [8], the “antiulcer effect reported in the literature (in words)” value is “antiulcer effects”. Further, the Inhibition in [1] (Table 2, 10 mg/kg po) was determined as 25.8%; in data set [1] (Table 2, 25 mg/kg po) it was 52.0%; in data set [1] (Table 2, 50 mg/kg po) it was 83.9%; in data set [1] (setting [9]), 12.7%; in [2] (Table 4, 10 mg/kg po) it was 50.3%; in [2] (Table 4, 25 mg/kg po) it was 63.9%. For the same compound, the Inhibition in [2] (Table 4, 50 mg/kg po) turned out to be 85.9%; in data set [2] (setting [10]), 78.8%. For the same compound, the Ulcer index worked out at 24.4 ± 4.0 mm in data set [1] (Table 2, 10 mg/kg po); 15.8 ± 4.1 mm in [1] (Table 2, 25 mg/kg po); 5.3 ± 1.2 mm in data set [1] (Table 2, 50 mg/kg po); 17.2 ± 5.6 mm in data set [1] (setting [9]); 65.8 ± 12.1 mm in [2] (Table 4, 10 mg/kg po); 47.8 ± 15.3 mm in data set [2] (Table 4, 25 mg/kg po). The Ulcer index in data set [2] (Table 4, 50 mg/kg po) was 18.7 ± 6.2 mm; in data set [2] (setting [10]), 34.9 ± 10.9 mm. In addition, the Amount of hemoglobin is recorded as 19.6 ± 2.0 mg/rat in the data set on gastric hemorrhage (25 mg/kg i.p.) and 17.3 ± 2.3 mg/rat in the data set on gastric hemorrhage (50 mg/kg i.p.). Further, the “effect on gastric hemorrhage (in words)” value in the data set on gastric hemorrhage is given as “did not have a statistically significant effect”.
